Results published in US11518763B2 (SCOHIA PHARMA, INC., priority 2018, dated 2022).

What follows are compounds tested against T1, binding between NRF2 and KEAP1 (biotinylated human KEAP1 protein (Kelch domain), TAMRA-labeled NRF2 peptide) (Homo sapiens, UniProt Q14145) (assay: Measurement of activity of inhibiting NRF2 binding (NRF2-KEAP1 TR-FRET)). Conditions: inhibition rate relative to control at 100 nM test compound; TR-FRET; 60 min at room temperature.
T1 construct: biotinylated human KEAP1 protein (Kelch domain); biotin (biotinylated)
T1 sequence (Q14145 321-609 limits assumed): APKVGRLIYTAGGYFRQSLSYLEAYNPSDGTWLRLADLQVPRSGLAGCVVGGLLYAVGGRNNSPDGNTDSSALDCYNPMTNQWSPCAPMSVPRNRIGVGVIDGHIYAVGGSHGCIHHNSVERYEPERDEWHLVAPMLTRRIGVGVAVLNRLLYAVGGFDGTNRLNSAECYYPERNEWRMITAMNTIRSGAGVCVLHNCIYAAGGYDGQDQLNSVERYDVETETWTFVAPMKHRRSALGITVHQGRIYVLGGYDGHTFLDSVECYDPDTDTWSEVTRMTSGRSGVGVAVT
Description: Test Example 1: Measurement of Activity of Inhibiting NRF2 Binding
The inhibitory activity of test compounds against the binding between NRF2 and KEAP1 was measured by Time Resolved Fluorescence Resonance Energy Transfer (TR-FRET) method. Into a 384 well plate, 2 μL of a compound, 2 μL of 2 nM solution of biotinylated human KEAP1 protein (Kelch domain), 2 μL of 14 nM solution of TAMRA-labeled NRF2 peptide (TAMRA-Abu(4)-VWYTDIRMRDWM-OH), and 2 μL of 2 nM solution of Tb-labeled streptavidin, all solutions diluted with assay buffer (25 mM HEPES, pH7.5, 150 mM NaCl, 0.01% Tween-20), were added. For some wells, the KEAP1 protein was not added to define control wells. The plate was incubated at room temperature for 60 minutes, and time-resolved fluorescence was measured with a plate reader Envision (manufactured by PerkinElmer). The inhibitory activity for each compound at a compound concentration of 100 nM were calculated as a relative activity value by setting the fluorescence intensity of control wells to which the KEAP1 protein was not added as 100% inhibition, and the fluorescence intensity of wells to which no compound was added as 0%.
The measurement results according to the method described above (inhibition rate of signal value relative to control at 100 nM of test compound) are shown in Table 3.
`Cc1c2ccc3c1nnn3CCCCCc1ccc(cc1)C(=O)N1CCc3ccc(cc3C1)C2CC(=O)O` (stereo not drawn) [Example 12, [32-Methyl-20-oxo-8,9,10,21-tetraazahexacyclo[19.5.3.2^16,19.0^3,7.0^6,10.0^24,28]dotriaconta-1(26),3(32),4,6,8,16,18,24,27,30-decaen-2-yl]acetic acid] was tested, and the “NRF2 binding inhibitory activity (at 100 nM)” value was 100%. For `Cc1cc2cc(C)c1C(=O)N1CCc3ccc(cc3C1)C(C(C)(C)C(=O)O)c1ccc3c(nnn3CCCOC2)c1C` (stereo not drawn) [Example 59, 2-methyl-2-[18,30,32-trimethyl-20-oxo-14-oxa-8,9,10,21-tetrazahexacyclo[19.5.3.2^16,19.1^3,7.0^6,10.0^24,28]dotriaconta-1(27),3(32),4,6,8,16(31),17,19(30),24(28),25-decaen-2-yl]propanoic acid], the “NRF2 binding inhibitory activity (at 100 nM)” value was 100%.

Same assay, conditions: inhibition rate relative to control at 100 nM test compound; TR-FRET; 60 min at room temperature; 0.1 µM
In the case of `Cc1c2ccc3c1nnn3CCCOCc1ccc(cc1)C(=O)N1CCc3ccc(cc3C1)C2CC(=O)O` (stereo not drawn) [Example 26, [32-Methyl-20-oxo-14-oxa-8,9,10,21-tetraazahexacyclo[19.5.3.2^16,19.1^3,7.0^6,10.0^24,28]dotriaconta-1(26),3(32),4,6,8,16,18,24,27,30-decaen-2-yl]acetic acid], the “NRF2 binding inhibitory activity (at 100 nM)” value is reported as 99%. `Cc1c2ccc3c1nnn3CCCOCc1ccc(cc1)C(=O)N1CCc3ccc(cc3C1)C2C(C)(C)C(=O)O` (stereo not drawn) [Example 56, 2-methyl-2-[32-methyl-20-oxo-14-oxa-8,9,10,21-tetrazahexacyclo[19.5.3.2^16,19.1^3,7.0^6,10.0^24,28]dotriaconta-1(27),3(32),4,6,8,16,18,24(28),25,30-decaen-2-yl]propanoic acid] was tested, and the “NRF2 binding inhibitory activity (at 100 nM)” value was 99%. With `Cc1c2ccc3c1nnn3CCCOCc1cc(Cl)c(c(Cl)c1)C(=O)N1CCc3ccc(cc3C1)C2C(C)(C)C(=O)O` (stereo not drawn) [Example 61, 2-[18,30-dichloro-32-methyl-20-oxo-14-oxa-8,9,10,21-tetrazahexacyclo[19.5.3.2^16,19.1^3,7.0^6,10.0^24,28]dotriaconta-1(27),3(32),4,6,8,16,18,24(28),25,30-decaen-2-yl]-2-methylpropanoic acid] the “NRF2 binding inhibitory activity (at 100 nM)” value was 99%. `Cc1c2ccc3c1nnn3CCCCCc1ccc(cc1)C(=O)N1CCc3ccc(cc3C1)C2C(C)(C)C(=O)O` (stereo not drawn) [Example 63, 2-methyl-2-[32-methyl-20-oxo-8,9,10,21-tetrazahexacyclo [19.5.3.2^16,19.1^3,7.0^6,10.0^24,28]dotriaconta-1(27),3(32),4,6,8,16(31),17,19(30),24(28),25-decaen-2-yl]propanoic acid] was tested, and the “NRF2 binding inhibitory activity (at 100 nM)” value was 46%. For `Cc1c2ccc3c1nnn3CCCCOc1cc(Cl)c(c(Cl)c1)C(=O)N1CCc3ccc(cc3C1)C2C(C)(C)C(=O)O` (stereo not drawn) [Example 66, 2-[18,30-dichloro-32-methyl-20-oxo-15-oxa-8,9,10,21-tetrazahexacyclo[19.5.3.2^16,19.1^3,7.0^6,10.0^24,28]dotriaconta-1(27),3(32),4,6,8,16(31),17,19(30),24(28),25-decaen-2-yl]-2-methylpropanoic acid], the “NRF2 binding inhibitory activity (at 100 nM)” value was 94%. `Cc1cc2cc(C)c1C(=O)N1CCc3ccc(cc3C1)C(CC(=O)O)c1ccc3c(nnn3CCCOC2)c1C` (stereo not drawn) [Example 68, [18,30,32-trimethyl-20-oxo-14-oxa-8,9,10,21-tetrazahexacyclo[19.5.3.2^16,19.1^3,7.0^6,10.0^24,28]dotriaconta-1(27),3(32),4,6,8,16,18,24(28),25,30-decaen-2-yl]acetic acid] was tested, and the “NRF2 binding inhibitory activity (at 100 nM)” value was 93%.

Same assay, conditions: inhibition rate relative to control at 100 nM test compound; TR-FRET; 60 min at room temperature; read-out: NRF2 binding inhibitory activity (at 100 nM)
`Cc1c2ccc3c1nnn3CCCCCc1ccc(cc1)C(=O)N1CCc3ccc(cc3C1)C2C(C)C(=O)O` (stereo not drawn) [Example 6, 2-[32-Methyl-20-oxo-8,9,10,21-tetraazahexacyclo[19.5.3.2^16,19.1^3,7.0^6,10.0^24,28]dotriaconta-1(26),3(32),4,6,8,16,18,24,27,30-decaen-2-yl]propanoic acid] gave an inhibition at 0.1 µM of 100%. `Cc1oc(=O)oc1COC(=O)CC1c2ccc3c(c2)CN(CC3)C(=O)c2ccc(cc2)COCCCn2nnc3c(C)c1ccc32` (stereo not drawn) [Example 34, (5-Methyl-2-oxo-2H-1,3-dioxol-4-yl)methyl [32-methyl-20-oxo-14-oxa-8,9,10,21-tetraazahexacyclo[19.5.3.2^16,19.1^3,7.0^6,10.0^24,28]dotriaconta-1(26),3(32),4,6,8,16,18,24,27,30-decaen-2-yl]acetate] showed an inhibition at 0.1 µM of 99%. In the case of `Cc1oc(=O)oc1COC(=O)CC1c2ccc3c(c2)CN(CC3)C(=O)c2ccc(cc2)CCCCCn2nnc3c(C)c1ccc32` (stereo not drawn) [Example 35, (5-Methyl-2-oxo-2H-1,3-dioxol-4-yl)methyl [32-methyl-20-oxo-8,9,10,21-tetraazahexacyclo[19.5.3.2^16,19.1^3,7.0^6,10.0^24,28]dotriaconta-1(26),3(32),4,6,8,16,18,24,27,30-decaen-2-yl]acetate], the inhibition at 0.1 µM is reported as 99%. Compound `CCOC(=O)CC1c2ccc3c(c2)CN(CC3)C(=O)c2ccc(cc2)COCCCn2nnc3c(C)c1ccc32` (stereo not drawn) [Example 36, Ethyl [32-methyl-20-oxo-14-oxa-8,9,10,21-tetraazahexacyclo[19.5.3.2^16,19.1^3,7.0^6,10.0^24,28]dotriaconta-1(26),3(32),4,6,8,16,18,24,27,30-decaen-2-yl]acetate] has an inhibition at 0.1 µM of 15%. For `Cc1ccc(NC(=O)CC2c3ccc4c(c3)CN(CC4)C(=O)c3ccc(cc3)CCCCCn3nnc4c(C)c2ccc43)cn1` (stereo not drawn) [Example 38, 2-[32-Methyl-20-oxo-8,9,10,21-tetraazahexacyclo[19.5.3.2^16,19.1^3,7.0^6,10.0^24,28]dotriaconta-1(26),3(32),4,6,8,16,18,24,27,30-decaen-2-yl]-N-(6-methylpyridin-3-yl)acetamide], the inhibition at 0.1 µM was 79%. With `Cc1c2ccc3c1nnn3CCCCCc1ccc(cc1)C(=O)N1CCc3ccc(cc3C1)C2CC(=O)Nc1cccnc1` (stereo not drawn) [Example 39] the inhibition at 0.1 µM was 97%. `Cc1c2ccc3c1nnn3CCCOCc1ccc(cc1)C(=O)N1CCc3ccc(cc3C1)C2CC(=O)OC(C)OC(=O)OC1CCCCC1` (stereo not drawn) [Example 40, 1-{[(Cyclohexyloxy)carbonyl]oxy}ethyl[32-methyl-20-oxo-14-oxa-8,9,10,21-tetraazahexacyclo[19.5.3.2^16,19.1^3,7.0^6,10.0^24,28]dotriaconta-1(26),3(32),4,6,8,16,18,24,27,30-decaen-2-yl]acetate] gave an inhibition at 0.1 µM of 82%. `Cc1ccc(NC(=O)CC2c3ccc4c(c3)CN(CC4)C(=O)c3ccc(cc3)COCCCn3nnc4c(C)c2ccc43)cn1` (stereo not drawn) [Example 42] gave an inhibition at 0.1 µM of 60%. `Cc1cc2cc(C)c1C(=O)N1CCc3ccc(cc3C1)C(CC(=O)O)c1ccc3c(nnn3CCCOC2)c1C` (stereo not drawn) [Example 67, [18,30,32-trimethyl-20-oxo-14-oxa-8,9,10,21-tetrazahexacyclo[19.5.3.2^16,19.1^3,7.0^6,10.0^24,28]dotriaconta-1(27),3(32),4,6,8,16,18,24(28),25,30-decaen-2-yl]acetic acid] showed an inhibition at 0.1 µM of 99%.

Same assay, conditions: read-out: NRF2 binding inhibitory activity (at 100 nM)
For `Cc1c2ccc3c1nnn3CCCOCc1ccc(cc1)C(=O)N1CCc3ccc(cc3C1)C2CC(=O)O` (stereo not drawn) [Example 41, Sodium [32-methyl-20-oxo-14-oxa-8,9,10,21-tetraazahexacyclo[19.5.3.2^16,19.1^3.7.0^6,10.0^24,28]dotriaconta-1(26),3(32),4,6,8,16,18,24,27,30-decaen-2-yl]acetate], the inhibition at 0.1 µM was 100%.
